Laboratory results published in US10947272B2, “BACE1 inhibitor peptides” (HOFFMANN-LA ROCHE INC., priority 2015, dated 2021).
Structures can show the parent of a compound that is named as a salt. Numbered stars: 1 amine (or outer) side, 2 acyl side, 3 side chain; on linkers, the order of the positions; unused ones are H or OH. Square brackets hold non-standard residues; d marks the D form. Ends that are not written are not given here. Peptide text beside a SMILES is read from it. MetSta(3S,4S) = CSCC[C@H](N[*:1])[C@@H](O)CC(=O)[*:2]; MetSta = statine analogue named MetSta in the name; Sta = CC(C)C[C@H](N)[C@@H](O)CC(=O)O; PEG4 = NCCOCCOCCOCCOCCC(=O)O

Molecular target: BACE1 (Asp2, β-secretase, Memapsin-2) in HEK293 cells stably expressing human APP695 (UniProt P56817 46-501, limits assumed)
Sequence (P56817 46-501 limits assumed): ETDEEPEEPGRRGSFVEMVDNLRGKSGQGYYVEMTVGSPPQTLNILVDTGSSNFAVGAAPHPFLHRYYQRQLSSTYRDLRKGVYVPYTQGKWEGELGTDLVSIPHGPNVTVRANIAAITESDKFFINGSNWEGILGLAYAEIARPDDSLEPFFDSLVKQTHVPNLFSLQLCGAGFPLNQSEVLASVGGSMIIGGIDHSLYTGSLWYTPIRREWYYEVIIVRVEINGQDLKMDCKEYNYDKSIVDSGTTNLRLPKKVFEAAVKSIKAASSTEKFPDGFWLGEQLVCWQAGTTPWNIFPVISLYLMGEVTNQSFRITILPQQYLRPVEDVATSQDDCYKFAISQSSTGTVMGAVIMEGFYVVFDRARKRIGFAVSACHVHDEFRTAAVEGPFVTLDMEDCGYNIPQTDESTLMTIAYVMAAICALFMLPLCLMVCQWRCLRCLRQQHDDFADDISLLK
Test: cell-based or functional assay
Details: not given

Row | Molecule | IC 50, cellular Aβ-lowering assay (Aβ40 in supernatant of HEK293 cells expressing human APP695) [µM]
1 | YPKFIPLG[dK]GEVN[Sta]VAE[dP]-NH2 (also: TFA salt (3 TFA)) [Tyr-Pro-Lys-Phe-Ile-Pro-Leu-Gly-DLys-Gly-Glu-Val-Asn-Sta-Val-Ala-Glu-DPro-NH2 × 3TFA] | 0.28
2 | YPYFIP[dK]G[dK]GEVN[Sta]VAE[dP]-NH2 (also: TFA salt (3 TFA)) [Tyr-Pro-Tyr-Phe-Ile-Pro-DLys-Gly-DLys-Gly-Glu-Val-Asn-Sta-Val-Ala-Glu-DPro-NH2 × 3TFA] | 0.019
3 | YPYFIPL[PEG4]EVN[MetSta(3S,4S)]VAE[dF]-NH2 (also: TFA salt) [Tyr-Pro-Tyr-Phe-Ile-Pro-Leu-PEG(4)-Glu-Val-Asn-MetSta-Val-Ala-Glu-DPhe-NH2 × TFA] | 0.43
4 | YPYFIPL[PEG4]EVN[MetSta(3S,4S)]VAEP-NH2 (also: TFA salt) [Tyr-Pro-Tyr-Phe-Ile-Pro-Leu-PEG(4)-Glu-Val-Asn-MetSta-Val-Ala-Glu-Pro-NH2 × TFA] | 0.017
5 | YPYFIPLGGGEVN[MetSta]VAEP-NH2 (also: TFA salt) [Tyr-Pro-Tyr-Phe-Ile-Pro-Leu-Gly-Gly-Gly-Glu-Val-Asn-MetSta-Val-Ala-Glu-Pro-NH2 × TFA] | 1.34

Molecular target: T1, BACE1 (Homo sapiens, UniProt P56817)
T1 construct: Human HEK293 cells which are stably transfected with a vector expressing a cDNA of the human APP wt gene (APP695); endogenous in cells; host or cells: HEK293 (human), stably transfected with human APP695 wt cDNA
T1 sequence (P56817 46-501): as the sequence (P56817 46-501 limits assumed) above
Test: Cellular Aβ-lowering assay (Aβ40 ELISA of culture supernatant)
Assay type: cell-based
Details: IC 50, dual-site BACE1 inhibitors; HEK293 cells stably transfected with human APP wt (APP695); 18-20 hrs incubation; Aβ40 in supernatant
Protocol: The compounds were investigated in accordance with the test given hereinafter. Cellular Aβ-Lowering Assay: Human HEK293 cells which are stably transfected with a vector expressing a cDNA of the human APP wt gene (APP695) were used to assess the potency of the compounds in a cellular assay. The cells were seeded in 96-well microtiter plates in cell culture medium (Iscove, plus 10% (v/v) fetal bovine serum, glutamine, penicillin/streptomycin) to about 80% confluence and the compounds were added at a 10× concentration in 1/10 volume of medium without FCS containing 8% DMSO (final concentration of DMSO was kept at 0.8% v/v). After 18-20 hrs incubation at 37° C. and 5% CO2 in a humidified incubator the culture supernatant was harvested for the determination of Aβ40 concentrations. 96 well ELISA plates (e.g., Nunc MaxiSorb) were coated with monoclonal antibody which specifically recognize the C-terminal end of Aβ40 (Brockhaus et al., NeuroReport 9, 1481-1486; 1998). After blocking of non-specific binding sites with e.g. 1% BSA and washing, the culture supernatants were added in suitable dilutions together with a horseradish peroxidase-coupled Aβ detection antibody (e.g., antibody 4G8, Senetek, Maryland Heights, Mo.) and incubated for 5 to 7 hrs. Subsequently the wells of the microtiter plate were washed extensively with Tris-buffered saline containing 0.05% Tween 20 and the assay was developed with tetramethylbenzidine/H2O2 in citric acid buffer. After stopping the reaction with one volume 1 N H2SO4 the reaction was measured in an ELISA reader at 450 nm wavelength. The concentrations of Aβ in the culture supernatants were calculated from a standard curve obtained with known amounts of pure Aβ peptide.

Row | Molecule | IC50 [µM]
6 | CC(C)C[C@H](NC(=O)[C@@H]1CCCN1C(=O)[C@@H](CCCCN)NC(=O)[C@H](Cc1ccccc1)NC(=O)[C@H](Cc1ccc(O)cc1)NC(=O)[C@@H]1CCCN1C(=O)[C@@H](N)Cc1ccc(O)cc1)C(=O)NCCOCCOCCOCCOCCC(=O)N[C@@H](CCC(=O)O)C(=O)N[C@H](C(=O)N[C@@H](CC(N)=O)C(=O)N[C@@H](CC(C)C)[C@@H](O)CC(=O)N[C@H](C(=O)N[C@@H](C)C(=O)N[C@@H](CCC(=O)O)C(=O)N1CCC[C@@H]1C(N)=O)C(C)C)C(C)C [Example 24, H-Tyr-Pro-Tyr-Phe-DLys-Pro-Leu-PEG(4)-Glu-Val-Asn-Sta-Val-Ala-Glu-DPro-NH2 × 2TFA] (H-YPYF[dK]PL[PEG4]EVN[Sta]VAE[dP]-NH2) | > 40
7 | CC[C@H](C)[C@H](NC(=O)[C@@H](CCCCN)NC(=O)[C@H](Cc1ccc(O)cc1)NC(=O)[C@@H]1CCCN1C(=O)[C@@H](N)Cc1ccc(O)cc1)C(=O)N1CCC[C@H]1C(=O)N[C@@H](CC(C)C)C(=O)NCC(=O)N[C@H](CCCCN)C(=O)NCC(=O)N[C@@H](CCC(=O)O)C(=O)N[C@H](C(=O)N[C@@H](CC(N)=O)C(=O)N[C@@H](CC(C)C)[C@@H](O)CC(=O)N[C@H](C(=O)N[C@@H](C)C(=O)N[C@@H](CCC(=O)O)C(=O)N1CCC[C@@H]1C(N)=O)C(C)C)C(C)C [Example 33, H-Tyr-Pro-Tyr-DLys-Ile-Pro-Leu-Gly-DLys-Gly-Glu-Val-Asn-Sta-Val-Ala-Glu-DPro-NH2] (H-YPY[dK]IPLG[dK]GEVN[Sta]VAE[dP]-NH2) | 34.8

Same assay, conditions: active site motifs alone; HEK293 cells stably transfected with human APP wt (APP695); Aβ40 in supernatant; read-out: IC 50

Row | Molecule | IC50 [µM]
8 | CSCC[C@H](NC(=O)[C@H](CC(N)=O)NC(=O)[C@@H](NC(=O)[C@@H](N)CCC(=O)O)C(C)C)[C@@H](O)CC(=O)N[C@H](C(=O)N[C@@H](C)C(=O)N[C@@H](CCC(=O)O)C(=O)N[C@H](Cc1ccccc1)C(N)=O)C(C)C [Example A2, Glu-Val-Asn-MetSta-Val-Ala-Glu-DPhe-NH2 × TFA, reference compound] (H-EVN[MetSta(3S,4S)]VAE[dF]-NH2) | > 40

Same assay, conditions: dual-site BACE1 inhibitors; HEK293 cells stably transfected with human APP wt (APP695); 18-20 hrs incubation; Aβ40 in supernatant; read-out: IC 50

Row | Molecule | IC50 [µM]
9 | CC[C@H](C)[C@H](NC(=O)[C@H](Cc1ccccc1)NC(=O)[C@H](Cc1ccc(O)cc1)NC(=O)[C@@H]1CCCN1C(=O)[C@@H](N)Cc1ccc(O)cc1)C(=O)N[C@H](CCCCN)C(=O)N[C@@H](CC(C)C)C(=O)NCC(=O)N[C@H](CCCCN)C(=O)NCC(=O)N[C@@H](CCC(=O)O)C(=O)N[C@H](C(=O)N[C@@H](CC(N)=O)C(=O)N[C@@H](CC(C)C)[C@@H](O)CC(=O)N[C@H](C(=O)N[C@@H](C)C(=O)N[C@@H](CCC(=O)O)C(=O)N1CCC[C@@H]1C(N)=O)C(C)C)C(C)C [Example 12, Tyr-Pro-Tyr-Phe-Ile-DLys-Leu-Gly-DLys-Gly-Glu-Val-Asn-Sta-Val-Ala-Glu-DPro-NH2 × 3TFA] (H-YPYFI[dK]LG[dK]GEVN[Sta]VAE[dP]-NH2) | > 40
10 | CC[C@H](C)[C@H](NC(=O)[C@H](Cc1ccccc1)NC(=O)[C@H](Cc1ccc(O)cc1)NC(=O)[C@@H]1CCCN1C(=O)[C@@H](N)Cc1ccc(O)cc1)C(=O)N1CCC[C@H]1C(=O)N[C@H](CCCCN)C(=O)NCC(=O)N[C@H](CCCCN)C(=O)NCC(=O)N[C@@H](CCC(=O)O)C(=O)N[C@H](C(=O)N[C@@H](CC(N)=O)C(=O)N[C@@H](CCSC)[C@@H](O)CC(=O)N[C@H](C(=O)N[C@@H](C)C(=O)N[C@@H](CCC(=O)O)C(=O)N1CCC[C@H]1C(N)=O)C(C)C)C(C)C [Example 18, Tyr-Pro-Tyr-Phe-Ile-Pro-DLys-Gly-DLys-Gly-Glu-Val-Asn-MetSta-Val-Ala-Glu-Pro-NH2 × 3TFA] | 0.015
11 | CC(C)C[C@H](NC(=O)[C@@H](CCCCN)NC(=O)[C@H](Cc1ccccc1)NC(=O)[C@H](Cc1ccc(O)cc1)NC(=O)[C@@H]1CCCN1C(=O)[C@@H](N)Cc1ccc(O)cc1)C(=O)NCCOCCOCCOCCOCCC(=O)N[C@@H](CCC(=O)O)C(=O)N[C@H](C(=O)N[C@@H](CC(N)=O)C(=O)N[C@@H](CC(C)C)[C@@H](O)CC(=O)N[C@H](C(=O)N[C@@H](C)C(=O)N[C@@H](CCC(=O)O)C(=O)N1CCC[C@@H]1C(N)=O)C(C)C)C(C)C [Example 23, H-Tyr-Pro-Tyr-Phe-DLys-Leu-PEG(4)-Glu-Val-Asn-Sta-Val-Ala-Glu-DPro-NH2 × 3TFA] (H-YPYF[dK]L[PEG4]EVN[Sta]VAE[dP]-NH2) | > 40
12 | CC(C)C[C@H](NC(=O)[C@@H]1CCCN1C(=O)[C@@H](CCCCN)NC(=O)[C@H](Cc1ccccc1)NC(=O)[C@H](Cc1ccc(O)cc1)NC(=O)[C@@H]1CCCN1C(=O)[C@@H](N)Cc1ccc(O)cc1)C(=O)NCC(=O)N[C@H](CCCCN)C(=O)NCC(=O)N[C@@H](CCC(=O)O)C(=O)N[C@H](C(=O)N[C@@H](CC(N)=O)C(=O)N[C@@H](CC(C)C)[C@@H](O)CC(=O)N[C@H](C(=O)N[C@@H](C)C(=O)N[C@@H](CCC(=O)O)C(=O)N1CCC[C@@H]1C(N)=O)C(C)C)C(C)C [Example 13, Tyr-Pro-Tyr-Phe-DLys-Pro-Leu-Gly-DLys-Gly-Glu-Val-Asn-Sta-Val-Ala-Glu-DPro-NH2 × 3TFA] (H-YPYF[dK]PLG[dK]GEVN[Sta]VAE[dP]-NH2) | > 40

Same assay, conditions: exosite motifs alone; HEK293 cells stably transfected with human APP wt (APP695); Aβ40 in supernatant; read-out: IC 50

Row | Molecule | IC50 [µM]
13 | CC[C@H](C)[C@H](NC(=O)[C@H](Cc1ccccc1)NC(=O)[C@H](CCCNC(=N)N)NC(=O)[C@H](C)NC(=O)CNC(=O)[C@@H](NC(=O)[C@H](CO)NC(C)=O)[C@@H](C)O)C(=O)N1CCC[C@H]1C(=O)N[C@@H](C)C(=O)N[C@@H](CC(N)=O)C(N)=O [Example E3, Ac-Ser-Thr-Gly-Ala-Arg-Phe-Ile-Pro-Ala-Asn-NH2] (Ac-STGARFIPAN-NH2) | > 40
14 | YQTFKPANGS [Example E2, Ac-Tyr-Gln-Thr-Phe-Lys-Pro-Ala-Asn-Gly-Ser-NH2, exosite motif peptide tested alone] | > 40
15 | CC[C@H](C)[C@H](NC(=O)[C@H](Cc1ccccc1)NC(=O)[C@H](CCCCN)NC(=O)[C@@H]1CCCN1C(=O)[C@H](Cc1ccc(O)cc1)NC(=O)[C@H](CC(=O)O)NC(=O)CNC(C)=O)C(=O)N1CCC[C@H]1C(=O)N[C@@H](C)C(=O)N[C@@H](CO)C(N)=O [Example E5, Ac-Gly-Asp-Tyr-Pro-Lys-Phe-Ile-Pro-Ala-Ser-NH2] (Ac-GDYPKFIPAS-NH2) | > 40
16 | CC[C@H](C)[C@H](NC(=O)[C@H](Cc1ccccc1)NC(=O)[C@H](CCCCN)NC(=O)[C@@H]1CCCN1C(=O)[C@H](Cc1ccc(O)cc1)NC(=O)[C@H](CC(=O)O)NC(=O)CNC(C)=O)C(=O)N[C@@H](CO)C(=O)N[C@@H](C)C(=O)N[C@@H](CC(N)=O)C(N)=O [Example E4, Ac-Gly-Asp-Tyr-Pro-Lys-Phe-Ile-Ser-Ala-Asn-NH2] (Ac-GDYPKFISAN-NH2) | > 40
17 | CC(=O)N[C@@H](CCC(N)=O)C(=O)N[C@@H](CCC(N)=O)C(=O)N[C@@H](Cc1ccc(O)cc1)C(=O)N1CCC[C@H]1C(=O)N[C@@H](Cc1ccc(O)cc1)C(=O)N[C@@H](Cc1ccccc1)C(=O)N[C@@H](CCCCN)C(=O)N1CCC[C@H]1C(=O)N[C@@H](C)C(=O)N[C@@H](CC(N)=O)C(N)=O [Example E1, Ae-Gln-Gln-Tyr-Pro-Tyr-Phe-Lys-Pro-Ala-Asn-NH2] (Ac-QQYPYFKPAN-NH2) | > 40
18 | CC[C@H](C)[C@H](NC(=O)[C@H](Cc1ccccc1)NC(=O)[C@H](CCCCN)NC(=O)[C@@H]1CCCN1C(=O)[C@H](Cc1ccc(O)cc1)NC(=O)[C@H](CO)NC(=O)CNC(C)=O)C(=O)N[C@@H](CC(=O)O)C(=O)N[C@@H](C)C(=O)N[C@@H](CC(N)=O)C(N)=O [Example E6, Ac-Gly-Ser-Tyr-Pro-Lys-Phe-Ile-Asp-Ala-Asn-NH2] (Ac-GSYPKFIDAN-NH2) | > 40
